Laboratory results as given in ChEMBL document CHEMBL4007472, “Identification of novel TACE inhibitors compatible with topical application” (Bioorg Med Chem Lett, 2017).
pIC50: −log10 of the molar value. ≈ marks a conversion by molar mass, not a printed value.

Tests used:
[1] = target: T1, Disintegrin and metalloproteinase domain-containing protein 17 (Homo sapiens, UniProt P78536); assay: Inhibition of recombinant human TACE catalytic domain using Mca-Pro-Leu-Ala-Gln-Ala-Val-Dpa-Arg-Ser-Ser-Ser-Arg-NH2 as substrate after 2 hrs by fluorescence assay
[2] = target: T1, Disintegrin and metalloproteinase domain-containing protein 17; assay: Inhibition of TACE in NHEK assessed as reduction in LPS/TPA-stimulated TNFalpha production preincubated for 1 hr followed by LPS/TPA stimulation for 24 hrs by HTRF assay
[3] = Aqueous solubility of the compound; format: physicochemical
[4] = target: T1, Disintegrin and metalloproteinase domain-containing protein 17; assay: Inhibition of TACE in human PBMC assessed as inhibition of TNFalpha production
[5] = Stability in human liver microsomes assessed as parent compound remaining at 1 uM after 15 mins by LC-MS/MS analysis; format: ADME, microsome; details: read-out: Stability
Interstitial collagenase = target: T2, Interstitial collagenase (Homo sapiens, UniProt P03956); assay: Inhibition of recombinant human MMP1 catalytic domain using Mca-Pro-Leu-Gly-Leu-Dpa-Ala-Arg-NH2 as substrate after 10 mins by fluorescence assay
T2 sequence (P03956 whole entry): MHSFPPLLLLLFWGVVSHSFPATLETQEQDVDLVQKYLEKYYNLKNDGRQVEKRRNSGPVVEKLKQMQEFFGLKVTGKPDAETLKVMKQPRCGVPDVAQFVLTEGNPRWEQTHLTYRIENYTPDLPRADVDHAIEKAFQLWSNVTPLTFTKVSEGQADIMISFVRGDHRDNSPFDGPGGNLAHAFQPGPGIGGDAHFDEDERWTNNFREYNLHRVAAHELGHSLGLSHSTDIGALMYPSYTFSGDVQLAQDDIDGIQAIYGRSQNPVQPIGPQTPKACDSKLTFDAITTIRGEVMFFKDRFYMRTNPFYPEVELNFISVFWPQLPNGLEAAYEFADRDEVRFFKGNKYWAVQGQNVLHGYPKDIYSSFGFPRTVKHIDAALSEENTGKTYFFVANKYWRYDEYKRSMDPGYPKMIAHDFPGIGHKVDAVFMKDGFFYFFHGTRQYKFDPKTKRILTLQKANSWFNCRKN

Stromelysin-1 = Stromelysin-1 (Homo sapiens, UniProt P08254); assay: Inhibition of MMP3 (unknown origin)
[6] = target: Matrix metalloproteinase-9 (Homo sapiens, UniProt P14780); assay: Inhibition of MMP9 (unknown origin)
[7] = target: Macrophage metalloelastase (Homo sapiens, UniProt P39900); assay: Inhibition of MMP12 (unknown origin)
[8] = target: T3, Disintegrin and metalloproteinase domain-containing protein 9 (Homo sapiens, UniProt Q13443); assay: Inhibition of ADAM9 (unknown origin)
T3 sequence (Q13443 whole entry): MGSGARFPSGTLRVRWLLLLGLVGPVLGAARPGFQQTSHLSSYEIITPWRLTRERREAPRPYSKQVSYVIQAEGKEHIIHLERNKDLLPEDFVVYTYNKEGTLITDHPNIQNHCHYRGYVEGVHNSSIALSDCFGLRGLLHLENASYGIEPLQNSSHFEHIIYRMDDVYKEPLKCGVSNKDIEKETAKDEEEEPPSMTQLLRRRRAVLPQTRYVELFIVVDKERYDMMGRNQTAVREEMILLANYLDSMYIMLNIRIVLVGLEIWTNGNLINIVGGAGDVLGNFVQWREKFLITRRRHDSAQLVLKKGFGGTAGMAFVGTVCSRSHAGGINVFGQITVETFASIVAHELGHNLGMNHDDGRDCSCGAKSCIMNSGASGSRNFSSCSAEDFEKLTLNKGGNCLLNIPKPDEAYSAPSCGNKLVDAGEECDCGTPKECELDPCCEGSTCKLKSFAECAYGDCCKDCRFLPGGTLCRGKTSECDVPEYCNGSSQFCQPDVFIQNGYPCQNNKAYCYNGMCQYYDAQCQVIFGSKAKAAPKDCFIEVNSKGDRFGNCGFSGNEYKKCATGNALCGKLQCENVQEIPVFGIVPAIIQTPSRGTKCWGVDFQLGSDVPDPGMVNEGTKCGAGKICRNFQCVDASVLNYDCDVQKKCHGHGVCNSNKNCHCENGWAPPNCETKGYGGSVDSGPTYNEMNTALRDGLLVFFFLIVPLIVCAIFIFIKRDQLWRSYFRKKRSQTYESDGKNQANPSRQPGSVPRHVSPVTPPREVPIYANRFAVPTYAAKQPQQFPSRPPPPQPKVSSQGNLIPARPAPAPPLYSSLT

[9] = target: T4, Disintegrin and metalloproteinase domain-containing protein 10 (Homo sapiens, UniProt O14672); assay: Inhibition of ADAM10 (unknown origin)
T4 sequence (O14672 whole entry): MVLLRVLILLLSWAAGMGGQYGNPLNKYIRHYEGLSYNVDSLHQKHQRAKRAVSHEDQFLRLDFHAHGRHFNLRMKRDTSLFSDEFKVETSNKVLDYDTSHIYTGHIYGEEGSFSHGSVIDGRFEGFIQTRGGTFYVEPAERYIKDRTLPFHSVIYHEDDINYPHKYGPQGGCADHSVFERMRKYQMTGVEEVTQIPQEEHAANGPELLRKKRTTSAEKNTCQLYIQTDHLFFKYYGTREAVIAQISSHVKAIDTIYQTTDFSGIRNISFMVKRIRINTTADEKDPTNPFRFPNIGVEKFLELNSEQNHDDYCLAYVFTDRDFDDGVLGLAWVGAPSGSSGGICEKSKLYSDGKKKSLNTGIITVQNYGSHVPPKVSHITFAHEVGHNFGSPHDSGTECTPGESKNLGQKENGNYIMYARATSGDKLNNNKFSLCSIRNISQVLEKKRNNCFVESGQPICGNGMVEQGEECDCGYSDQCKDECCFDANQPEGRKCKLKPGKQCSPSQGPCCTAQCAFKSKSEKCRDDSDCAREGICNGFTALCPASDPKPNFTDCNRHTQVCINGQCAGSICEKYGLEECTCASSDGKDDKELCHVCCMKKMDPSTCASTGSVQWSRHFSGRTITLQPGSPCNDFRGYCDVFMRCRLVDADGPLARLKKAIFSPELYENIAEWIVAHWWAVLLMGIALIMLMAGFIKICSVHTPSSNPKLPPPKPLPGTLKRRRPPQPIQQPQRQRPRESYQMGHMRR

[10] = Fraction unbound in human plasma at 5 uM after 4 hrs by LC-MS/MS based equilibrium dialysis method; format: ADME, cell-free
[11] = Intrinsic clearance in human hepatocytes assessed per million cells at 1 uM up to 90 mins by LC-MS/MS analysis; format: ADME, cell-based, Hepatocyte; details: read-out: CLH
[12] = Half life in human keratinocytes at 1 uM by LC-MS/MS analysis; format: ADME, cell-based, Keratinocyte
[13] = Solubility of the compound in PG/EtOH96; format: physicochemical
[14] = Photoirritancy factor, ratio of EC50 for human neonatal keratinocytes under dark condition to EC50 for human neonatal keratinocytes under 5 J/cm2 UV light exposure; parameters: species or system Neonatal keratinocyte

T1 sequence (P78536 whole entry, the tested form may be a part): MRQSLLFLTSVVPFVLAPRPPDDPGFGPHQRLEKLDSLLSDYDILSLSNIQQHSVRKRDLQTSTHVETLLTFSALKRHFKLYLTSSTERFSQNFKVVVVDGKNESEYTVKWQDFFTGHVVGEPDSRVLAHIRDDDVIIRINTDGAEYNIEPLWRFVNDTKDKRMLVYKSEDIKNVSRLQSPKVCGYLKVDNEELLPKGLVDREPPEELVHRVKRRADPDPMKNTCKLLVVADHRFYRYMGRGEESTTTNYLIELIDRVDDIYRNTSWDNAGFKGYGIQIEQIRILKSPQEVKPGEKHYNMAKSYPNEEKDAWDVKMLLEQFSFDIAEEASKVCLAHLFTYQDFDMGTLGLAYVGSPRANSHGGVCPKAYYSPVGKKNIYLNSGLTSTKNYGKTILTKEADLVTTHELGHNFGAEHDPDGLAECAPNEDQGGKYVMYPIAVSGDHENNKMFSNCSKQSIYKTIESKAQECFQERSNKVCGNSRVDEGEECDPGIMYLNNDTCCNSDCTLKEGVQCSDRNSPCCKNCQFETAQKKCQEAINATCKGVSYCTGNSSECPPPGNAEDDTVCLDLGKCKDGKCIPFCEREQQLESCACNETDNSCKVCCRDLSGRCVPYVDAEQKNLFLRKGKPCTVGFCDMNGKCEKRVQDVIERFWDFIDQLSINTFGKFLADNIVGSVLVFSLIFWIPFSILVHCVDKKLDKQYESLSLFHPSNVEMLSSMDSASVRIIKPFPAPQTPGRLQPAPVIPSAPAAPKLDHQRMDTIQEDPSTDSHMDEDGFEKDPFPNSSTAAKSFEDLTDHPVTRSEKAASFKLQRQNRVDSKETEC
Macrophage metalloelastase, sequence (P39900 whole entry, the tested form may be a part): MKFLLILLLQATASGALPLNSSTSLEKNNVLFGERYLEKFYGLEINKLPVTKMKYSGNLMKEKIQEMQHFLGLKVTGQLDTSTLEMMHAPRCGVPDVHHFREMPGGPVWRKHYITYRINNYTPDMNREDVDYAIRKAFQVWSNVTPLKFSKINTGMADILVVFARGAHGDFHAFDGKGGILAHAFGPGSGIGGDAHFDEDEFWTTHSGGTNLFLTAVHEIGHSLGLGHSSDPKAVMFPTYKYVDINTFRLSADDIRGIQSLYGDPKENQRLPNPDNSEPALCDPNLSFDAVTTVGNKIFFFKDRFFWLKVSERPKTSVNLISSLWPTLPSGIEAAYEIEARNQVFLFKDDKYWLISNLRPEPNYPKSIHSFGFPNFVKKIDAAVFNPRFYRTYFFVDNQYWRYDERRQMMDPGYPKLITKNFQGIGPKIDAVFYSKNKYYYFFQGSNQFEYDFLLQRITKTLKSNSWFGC
Matrix metalloproteinase-9, sequence (P14780 whole entry): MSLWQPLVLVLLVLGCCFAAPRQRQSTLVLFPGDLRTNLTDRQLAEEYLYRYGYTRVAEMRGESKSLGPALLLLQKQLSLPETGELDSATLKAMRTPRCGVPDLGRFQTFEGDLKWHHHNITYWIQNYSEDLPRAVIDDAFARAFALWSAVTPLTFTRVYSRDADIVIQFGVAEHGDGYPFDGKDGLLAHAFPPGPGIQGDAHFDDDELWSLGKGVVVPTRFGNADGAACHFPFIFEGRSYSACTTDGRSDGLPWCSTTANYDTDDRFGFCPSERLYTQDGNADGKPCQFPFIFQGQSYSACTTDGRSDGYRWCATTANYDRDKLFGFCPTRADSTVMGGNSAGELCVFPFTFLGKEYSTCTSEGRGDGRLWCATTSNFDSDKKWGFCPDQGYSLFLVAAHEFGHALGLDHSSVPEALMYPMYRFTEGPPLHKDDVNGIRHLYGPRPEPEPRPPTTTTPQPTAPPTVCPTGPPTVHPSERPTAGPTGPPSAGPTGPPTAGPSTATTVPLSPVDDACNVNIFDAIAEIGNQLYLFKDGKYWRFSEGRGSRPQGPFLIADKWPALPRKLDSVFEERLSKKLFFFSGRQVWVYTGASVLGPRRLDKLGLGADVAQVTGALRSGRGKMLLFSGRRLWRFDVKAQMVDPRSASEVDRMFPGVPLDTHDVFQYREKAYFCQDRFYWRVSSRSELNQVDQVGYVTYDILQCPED
Stromelysin-1, sequence (P08254 whole entry): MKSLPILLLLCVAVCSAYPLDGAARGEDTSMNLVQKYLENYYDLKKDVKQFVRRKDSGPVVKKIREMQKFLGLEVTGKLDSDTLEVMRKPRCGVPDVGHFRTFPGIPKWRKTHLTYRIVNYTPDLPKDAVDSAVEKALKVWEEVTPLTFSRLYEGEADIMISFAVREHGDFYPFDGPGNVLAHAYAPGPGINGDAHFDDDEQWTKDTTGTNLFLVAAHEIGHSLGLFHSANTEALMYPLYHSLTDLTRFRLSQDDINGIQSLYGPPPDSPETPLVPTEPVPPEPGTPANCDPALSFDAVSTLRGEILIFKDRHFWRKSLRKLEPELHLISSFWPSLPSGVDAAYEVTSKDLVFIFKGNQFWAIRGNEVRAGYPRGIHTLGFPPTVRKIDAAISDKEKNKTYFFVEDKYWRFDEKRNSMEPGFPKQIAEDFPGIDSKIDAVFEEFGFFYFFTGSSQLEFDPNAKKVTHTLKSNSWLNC

SMILES | pIC50 [1] | pIC50 [2] | solubility [3] [µM] | pIC50 [4] | remaining at […], 1 µM [5] [%] | pIC50 (Interstitial collagenase) | pIC50 (Stromelysin-1) | pIC50 [6] | pIC50 [7] | pIC50 [8] | pIC50 [9] | fraction unbound at 4 h, 5 µM [10] | hepatocyte CLint at […], 1 µM [11] [µL/min/1e6 cells] | half-life at 1 µM [12] [min] | solubility [13] [µM] | Ratio EC50 [14]
CC1(C)SCCN(S(=O)(=O)c2ccc(OCC#CCO)cc2)[C@H]1C(=O)NO | 8.40 | 6.92 | 90 (≈ 37.3 µg/mL) | 6.80 | – | – | – | – | – | – | – | – | – | – | – | –
Cc1cc(COc2ccc(S(=O)(=O)N3CCN(C(=O)C(C)(C)C)C(C(=O)NO)C3)cc2)c2c(n1)CCCC2 (centres undefined) | 7.92 | 5.89 | 20 (≈ 10.9 µg/mL) | – | 47 | < 5.00 | < 5.00 | < 5.00 | 6.03 | < 5.00 | < 5.00 | 0.03 | 14 | > 1440 | > 55 | 1
